From US20090197880A1 (Genelabs Technologies, Inc., priority 2007, published 2009) come the findings set out here.

A short description of the assay: HCV replicon assay (luciferase) in ET (Huh-lucubineo-ET) cell line. The format is cell-based. The conditions noted are these: Hepatitis C virus; tested at 10 μM; inhibition of replication relative to no compound control; ET replicon cells, luciferase 48-72 hours; read-out: % inhition at 10 μM.
With `CCCOc1ccc(-c2cc(Cn3cc4nc(-c5cccc(F)c5F)nc-4cn3)no2)cc1` [Compound 243, 2-(2,3-Difluoro-phenyl)-5-[5-(4-propoxy-phenyl)-isoxazol-3-ylmethyl]-5H-imidazo[4,5-d]pyridazine], the inhibition at 10 µM is 99.4%.

`Fc1cccc(-c2nc3cnn(Cc4cc(-c5ccc(OCc6ccccn6)cc5)no4)cc-3n2)c1F` [Compound 172, 2-(2,3-Difluoro-phenyl)-5-{3-[4-(pyridin-2-ylmethoxy)-phenyl]-isoxazol-5-ylmethyl}-5H-imidazo[4,5-d]pyridazine]: the inhibition at 10 µM turned out to be 95.4%.

As to `Cc1ccc(-c2cc(Cn3cc4nc(-c5cccc(F)c5F)nc-4cn3)on2)c(C)c1` [Compound 309, 2-(2,3-Difluoro-phenyl)-5-[3-(2,4-dimethyl-phenyl)-isoxazol-5-ylmethyl]-5H-imidazo[4,5-d]pyridazine], the inhibition at 10 µM was 100%.

Take `Oc1nn(Cc2cc(-c3ccc(C(F)(F)F)cc3C(F)(F)F)no2)cc2nc(-c3cccc(F)c3F)nc1-2` [Compound 262, 6-[3-(2,4-Bis-trifluoromethyl-phenyl)-isoxazol-5-ylmethyl]-2-(2,3-difluoro-phenyl)-6H-imidazo[4,5-d]pyridazin-4-ol]: the inhibition at 10 µM worked out at 96.6%.

In the case of `Fc1cccc(-c2nc3cnn(Cc4cc(-c5ccc(C(F)(F)F)cc5)no4)cc-3n2)c1F` [Compound 202, 2-(2,3-Difluoro-phenyl)-5-[3-(4-trifluoromethyl-phenyl)-isoxazol-5-ylmethyl]-5H-imidazo[4,5-d]pyridazine], the inhibition at 10 µM came to 99.2%.

Turning to `Fc1cccc(-c2nc3cnn(Cc4cc(-c5ccc(OCCN6CCCC6)cc5)no4)cc-3n2)c1F` [Compound 158, 2-(2,3-Difluoro-phenyl)-5-{3-[4-(2-pyrrolidin-1-yl-ethoxy)-phenyl]-isoxazol-5-ylmethyl}-5H-imidazo[4,5-d]pyridazine], the inhibition at 10 µM was found to be 27.9%.

In the case of `Fc1cccc(-c2nc3cnn(Cc4cc(-c5ccc(CN6CCCC6)cc5)no4)cc-3n2)c1F` [Compound 219, 2-(2,3-Difluoro-phenyl)-5-[3-(4-pyrrolidin-1-ylmethyl-phenyl)-isoxazol-5-ylmethyl]-5H-imidazo[4,5-d]pyridazine], the inhibition at 10 µM is 35%.

In the case of `Fc1ccc(-c2cc(Cn3cc4nc(-c5cccc(F)c5F)nc-4cn3)on2)c(OC(F)(F)F)c1` [Compound 160, 2-(2,3-Difluoro-phenyl)-5-[3-(4-fluoro-2-trifluoromethoxy-phenyl)-isoxazol-5-ylmethyl]-5H-imidazo[4,5-d]pyridazine], the inhibition at 10 µM came out at 61.5%.

With `Fc1cccc(-c2nc3cnn(Cc4cc(-c5ccc(OC(F)(F)F)c(Cl)c5)no4)cc-3n2)c1F` [Compound 165, 5-[3-(3-Chloro-4-trifluoromethoxy-phenyl)-isoxazol-5-ylmethyl]-2-(2,3-difluoro-phenyl)-5H-imidazo[4,5-d]pyridazine], the inhibition at 10 µM amounted to 79.4%.

With `Fc1cccc(-c2nc3cnn(Cc4cc(-c5ccc(C#CC6CCCC6)cc5)no4)cc-3n2)c1F` [Compound 335, 5-[3-(4-Cyclopentylethynyl-phenyl)-isoxazol-5-ylmethyl]-2-(2,3-difluoro-phenyl)-5H-imidazo[4,5-d]pyridazine], the inhibition at 10 µM worked out at 96.7%.

For `C#Cc1ccc(-c2cc(Cn3cc4nc(-c5cccc(F)c5F)nc-4cn3)on2)cc1` [Compound 334, 2-(2,3-Difluoro-phenyl)-5-[3-(4-ethynyl-phenyl)-isoxazol-5-ylmethyl]-5H-imidazo[4,5-d]pyridazine], the inhibition at 10 µM was determined as 99%.

In the case of `Fc1cc(C(F)(F)F)ccc1-c1cc(Cn2cc3nc(-c4cccc(F)c4F)nc-3cn2)on1` [Compound 203, 2-(2,3-Difluoro-phenyl)-5-[3-(2-fluoro-4-trifluoromethyl-phenyl)-isoxazol-5-ylmethyl]-5H-imidazo[4,5-d]pyridazine], the inhibition at 10 µM was found to be 99.6%.

With `COc1ccc(-c2nc(Cn3cc4nc(-c5ccccc5F)nc-4cn3)no2)cc1` [Compound 240, 2-(2-Fluoro-phenyl)-5-[5-(4-methoxy-phenyl)-[1,2,4]oxadiazol-3-ylmethyl]-5H-imidazo[4,5-d]pyridazine], the inhibition at 10 µM amounted to 16.4%.

Take `FC(F)(F)c1ccc(-c2cc(Cn3cc4nc(NCCc5ccccc5)nc-4cn3)on2)c(C(F)(F)F)c1` [Compound 256, {5-[3-(2,4-Bis-trifluoromethyl-phenyl)-isoxazol-5-ylmethyl]-5H-imidazo[4,5-d]pyridazin-2-yl}-phenethyl-amine]: the inhibition at 10 µM worked out at 9.34%.

As to `Fc1cccc(-c2nc3cnn(Cc4cc(-c5ccc(C(F)(F)F)cc5)on4)cc-3n2)c1F` [Compound 241, 2-(2,3-Difluoro-phenyl)-5-[5-(4-trifluoromethyl-phenyl)-isoxazol-3-ylmethyl]-5H-imidazo[4,5-d]pyridazine], the inhibition at 10 µM came out at 99.7%.

`CC(C)(c1cc(-c2ccc(C(F)(F)F)cc2C(F)(F)F)no1)n1cc2nc(-c3cccc(F)c3F)nc-2cn1` [Compound 227, 5-{1-[3-(2,4-Bis-trifluoromethyl-phenyl)-isoxazol-5-yl]-1-methyl-ethyl}-2-(2,3-difluoro-phenyl)-5H-imidazo[4,5-d]pyridazine]: the inhibition at 10 µM amounted to 97.9%.

`Cc1ccc(-c2cc(Cn3cc4nc(-c5cccc(F)c5F)nc-4cn3)on2)cc1` [Compound 187, 2-(2,3-Difluoro-phenyl)-5-(3-p-tolyl-isoxazol-5-ylmethyl)-5H-imidazo[4,5-d]pyridazine]: the inhibition at 10 µM worked out at 99.7%.

With `O=C(COc1ccc(-c2cc(Cn3cc4nc(-c5cccc(F)c5F)nc-4cn3)on2)cc1)NC1CC1` [Compound 271, N-Cyclopropyl-2-(4-{5-[2-(2,3-difluoro-phenyl)-imidazo[4,5-d]pyridazin-5-ylmethyl]-isoxazol-3-yl}-phenoxy)-acetamide], the inhibition at 10 µM was found to be 2.27%.

For `CC(F)(F)c1ccc(-c2cc(Cn3cc4nc(-c5cccc(F)c5F)nc-4cn3)on2)cc1` [Compound 314, 5-{3-[4-(1,1-Difluoro-ethyl)-phenyl]-isoxazol-5-ylmethyl}-2-(2,3-difluoro-phenyl)-5H-imidazo[4,5-d]pyridazine], the inhibition at 10 µM stood at 99.8%.

Take `O=C(O)c1ccc(COc2ccc(-c3cc(Cn4cc5nc(-c6cccc(F)c6F)nc-5cn4)on3)cc2)cc1` [Compound 162, 4-(4-{5-[2-(2,3-Difluoro-phenyl)-imidazo[4,5-d]pyridazin-5-ylmethyl]-isoxazol-3-yl}-phenoxymethyl)-benzoic Acid]: the inhibition at 10 µM was determined as 66.9%.

With `Fc1cccc(-c2nc3cnn(Cc4cc(-c5ccc(OCc6cccnc6)cc5)no4)cc-3n2)c1F` [Compound 179, 2-(2,3-Difluoro-phenyl)-5-{3-[4-(pyridin-3-ylmethoxy)-phenyl]-isoxazol-5-ylmethyl}-5H-imidazo[4,5-d]pyridazine], the inhibition at 10 µM worked out at 99.9%.

As to `Fc1ccccc1-c1nc2cnn(Cc3cc(-c4ccc(Br)cc4)no3)cc-2n1` [Compound 285, 5-[3-(4-Bromo-phenyl)-isoxazol-5-ylmethyl]-2-(2-fluoro-phenyl)-5H-imidazo[4,5-d]pyridazine], the inhibition at 10 µM was found to be 90.1%.

As to `O=C(O)CCCOc1ccc(-c2cc(Cn3cc4nc(-c5cccc(F)c5F)nc-4cn3)on2)cc1` [Compound 274, 4-(4-{5-[2-(2,3-Difluoro-phenyl)-imidazo[4,5-d]pyridazin-5-ylmethyl]-isoxazol-3-yl}-phenoxy)-butyric Acid], the inhibition at 10 µM worked out at 54.9%.

With `COc1ccc(-c2cc(Cn3cc4nc(-c5cccc(F)c5F)nc-4cn3)on2)c(OC)c1` [Compound 294, 2-(2,3-Difluoro-phenyl)-5-[3-(2,4-dimethoxy-phenyl)-isoxazol-5-ylmethyl]-5H-imidazo[4,5-d]pyridazine], the inhibition at 10 µM is 50%.

With `CCCOc1ccc(-c2cc(Cn3cc4nc(-c5cccc(F)c5F)nc-4c(N)n3)on2)cc1` [Compound 235, 2-(2,3-Difluoro-phenyl)-6-[3-(4-propoxy-phenyl)-isoxazol-5-ylmethyl]-6H-imidazo[4,5-d]pyridazin-4-ylamine], the inhibition at 10 µM was 56%.

With `FC(F)(F)c1ccc(-c2cc(Cn3cc4nc(-c5cccs5)nc-4cn3)on2)c(C(F)(F)F)c1` [Compound 143, 5-[3-(2,4-Bis-trifluoromethyl-phenyl)-isoxazol-5-ylmethyl]-2-thiophen-2-yl-5H-imidazo[4,5-d]pyridazine], the inhibition at 10 µM is 96.1%.

With `Cc1cc(C#Cc2ccc(-c3cc(Cn4cc5nc(-c6cccc(F)c6F)nc-5cn4)on3)cc2)cc(C)n1` [Compound 310, 2-(2,3-Difluoro-phenyl)-5-{3-[4-(2,6-dimethyl-pyridin-4-ylethynyl)-phenyl]-isoxazol-5-ylmethyl}-5H-imidazo[4,5-d]pyridazine], the inhibition at 10 µM stood at 99.4%.

As to `COCCOc1ccc(-c2cc(Cn3cc4nc(-c5cccc(F)c5F)nc-4cn3)on2)cc1` [Compound 195], the inhibition at 10 µM came to 98.8%.

On to `CCCCc1ccc(-c2cc(Cn3cc4nc(-c5cccc(F)c5F)nc-4cn3)on2)cc1` [Compound 201, 5-[3-(4-Butyl-phenyl)-isoxazol-5-ylmethyl]-2-(2,3-difluoro-phenyl)-5H-imidazo[4,5-d]pyridazine], for which the inhibition at 10 µM is 100%.

Regarding `Nc1nn(Cc2cc(-c3ccc(C(F)(F)F)cc3C(F)(F)F)no2)cc2nc(-c3cccc(F)c3F)nc1-2` [Compound 233, 6-[3-(2,4-Bis-trifluoromethyl-phenyl)-isoxazol-5-ylmethyl]-2-(2,3-difluoro-phenyl)-6H-imidazo[4,5-d]pyridazin-4-ylamine], the inhibition at 10 µM is 96.8%.
